Assay results published in patent US20110105623A1 (Biogenic Innovations, LLC, priority 2009, published 2011).

System: Chlorella minutissima
Experiment: Algal growth by percent transmittance at 750 nm
Format: cell-based
Experimental: Two species of Chlorella were examined for growth—Chlorella sorokiniana a freshwater species and Chlorella minutissima a marine species. […] Growth was measured on day 0, 1, 2, 3, 4, 5, 6, 7, 8, 9 and 10. […] The following media were purchased from UTEX Culture Collection of Algae: Enriched Salt Water Medium and Volvox Dextrose Medium.
The algae were grown for 48 hours in the appropriate medium. The initial suspension was enumerated for each alga and is referred to as the starting inoculums. Chlorella sorokiniana was at 381 million cells per milliliter and Chlorella minutissima was at 19 million cells per milliliter. One milliliter of the algal solution was placed into 9 mLs of medium and mixed by vortexing. […] The tube of algae and MSM were incubated at room temperature with exposure to sunlight. […] Each dilution of MSM for each organism was set up in and analyzed in triplicate for each time interval measured. The samples were measured by percent transmittance on a UV/VIS spectrophotometer at wavelength 750 nm. The medium stock was tested for percent transmittance background levels at every time interval were measured. The lower percent transmittance indicated a higher growth factor.

Methylsulfonylmethane [MSM]
Growth, percent transmittance at 750 nm (MSM 0.5%, Sample Day 0): 93.5% | Growth, percent transmittance at 750 nm (MSM 0.5%, Sample Day 1): 70.1% | Growth, percent transmittance at 750 nm (MSM 0.5%, Sample Day 2): 45.4% | Growth, percent transmittance at 750 nm (MSM 0.5%, Sample Day 3): 32.1% | Growth, percent transmittance at 750 nm (MSM 0.5%, Sample Day 4): 27.6% | Growth, percent transmittance at 750 nm (MSM 0.5%, Sample Day 5): 26.6% | Growth, percent transmittance at 750 nm (MSM 0.5%, Sample Day 6): 25.1% | Growth, percent transmittance at 750 nm (MSM 0.5%, Sample Day 7): 23.6% | Growth, percent transmittance at 750 nm (MSM 0.5%, Sample Day 8): 22.8% | Growth, percent transmittance at 750 nm (MSM 0.5%, Sample Day 9): 20.4% | Growth, percent transmittance at 750 nm (MSM 0.5%, Sample Day 10): 18.9% | Growth, percent transmittance at 750 nm (MSM 1.0%, Sample Day 0): 91.1% | Growth, percent transmittance at 750 nm (MSM 1.0%, Sample Day 1): 80.5% | Growth, percent transmittance at 750 nm (MSM 1.0%, Sample Day 2): 40.0% | Growth, percent transmittance at 750 nm (MSM 1.0%, Sample Day 3): 31.0% | Growth, percent transmittance at 750 nm (MSM 1.0%, Sample Day 4): 27.9% | Growth, percent transmittance at 750 nm (MSM 1.0%, Sample Day 5): 26.5% | Growth, percent transmittance at 750 nm (MSM 1.0%, Sample Day 6): 25.4% | Growth, percent transmittance at 750 nm (MSM 1.0%, Sample Day 7): 24.4% | Growth, percent transmittance at 750 nm (MSM 1.0%, Sample Day 8): 23.7% | Growth, percent transmittance at 750 nm (MSM 1.0%, Sample Day 9): 21.0% | Growth, percent transmittance at 750 nm (MSM 1.0%, Sample Day 10): 19.4% | Growth, percent transmittance at 750 nm (MSM 5.0%, Sample Day 0): 68.9% | Growth, percent transmittance at 750 nm (MSM 5.0%, Sample Day 1): 87.4% | Growth, percent transmittance at 750 nm (MSM 5.0%, Sample Day 2): 76.5% | Growth, percent transmittance at 750 nm (MSM 5.0%, Sample Day 3): 62.0% | Growth, percent transmittance at 750 nm (MSM 5.0%, Sample Day 4): 52.9% | Growth, percent transmittance at 750 nm (MSM 5.0%, Sample Day 5): 52.2% | Growth, percent transmittance at 750 nm (MSM 5.0%, Sample Day 6): 50.7% | Growth, percent transmittance at 750 nm (MSM 5.0%, Sample Day 7): 51.0% | Growth, percent transmittance at 750 nm (MSM 5.0%, Sample Day 8): 51.9% | Growth, percent transmittance at 750 nm (MSM 5.0%, Sample Day 9): 47.1% | Growth, percent transmittance at 750 nm (MSM 5.0%, Sample Day 10): 44.1% | Growth, percent transmittance at 750 nm (MSM 10.0%, Sample Day 0): 49.6% | Growth, percent transmittance at 750 nm (MSM 10.0%, Sample Day 1): 49.2% | Growth, percent transmittance at 750 nm (MSM 10.0%, Sample Day 2): 50.8% | Growth, percent transmittance at 750 nm (MSM 10.0%, Sample Day 3): 51.9% | Growth, percent transmittance at 750 nm (MSM 10.0%, Sample Day 4): 52.0% | Growth, percent transmittance at 750 nm (MSM 10.0%, Sample Day 5): 51.9% | Growth, percent transmittance at 750 nm (MSM 10.0%, Sample Day 6): 54.9% | Growth, percent transmittance at 750 nm (MSM 10.0%, Sample Day 7): 56.1% | Growth, percent transmittance at 750 nm (MSM 10.0%, Sample Day 8): 58.6% | Growth, percent transmittance at 750 nm (MSM 10.0%, Sample Day 9): 41.4% | Growth, percent transmittance at 750 nm (MSM 10.0%, Sample Day 10): 36.7% | Growth, percent transmittance at 750 nm (MSM 20.0%, Sample Day 0): 30.0% | Growth, percent transmittance at 750 nm (MSM 20.0%, Sample Day 1): 33.8% | Growth, percent transmittance at 750 nm (MSM 20.0%, Sample Day 2): 51.1% | Growth, percent transmittance at 750 nm (MSM 20.0%, Sample Day 3): 54.8% | Growth, percent transmittance at 750 nm (MSM 20.0%, Sample Day 4): 57.3% | Growth, percent transmittance at 750 nm (MSM 20.0%, Sample Day 5): 57.5% | Growth, percent transmittance at 750 nm (MSM 20.0%, Sample Day 6): 57.4% | Growth, percent transmittance at 750 nm (MSM 20.0%, Sample Day 7): 57.1% | Growth, percent transmittance at 750 nm (MSM 20.0%, Sample Day 8): 55.8% | Growth, percent transmittance at 750 nm (MSM 20.0%, Sample Day 9): 45.1% | Growth, percent transmittance at 750 nm (MSM 20.0%, Sample Day 10): 30.2% | Growth, percent transmittance at 750 nm (MSM […], Sample Day 0): 82.8% | Growth, percent transmittance at 750 nm (MSM […], Sample Day 1): 75.1% | Growth, percent transmittance at 750 nm (MSM […], Sample Day 2): 59.5% | Growth, percent transmittance at 750 nm (MSM […], Sample Day 3): 45.4% | Growth, percent transmittance at 750 nm (MSM […], Sample Day 4): 33.6% | Growth, percent transmittance at 750 nm (MSM […], Sample Day 5): 32.4% | Growth, percent transmittance at 750 nm (MSM […], Sample Day 6): 30.0% | Growth, percent transmittance at 750 nm (MSM […], Sample Day 7): 28.6% | Growth, percent transmittance at 750 nm (MSM […], Sample Day 8): 27.7% | Growth, percent transmittance at 750 nm (MSM […], Sample Day 9): 23.3% | Growth, percent transmittance at 750 nm (MSM […], Sample Day 10): 21.1%
